Measurements: patent US20030129189A1, “Tumor necrosis factor-gamma” (priority 1994, published 2003)

What was measured:
Raji = test: TNF-gamma activity on Raji cells; format: cell-based; design: key: The numbers of “+” indicate the relative level of activities.; ++: The numbers of “+” indicate the relative level of activities.; +++: The numbers of “+” indicate the relative level of activities.; “−” indicates no detected activity at the concentration range tested; details: human Burkitt's lymphoma
Protocol: The adherent target cells were prepared from confluent cultures by trypsinization in PBS, and non-adherent target cells were harvested from stationary cultures and washed once with medium. Target cells were suspended at 3×10^5 cells/ml in medium containing 10% FCS. 0.1 ml aliquots were dispensed into 96-well flat-bottomed microtiter plates containing 0.1 ml serially diluted test samples of cells (WEHI 164 and L929). Incubation was continued for 70 hours. TNF-alpha, TNF-beta and bacterially-produced TNF-gamma were added at a 0.5 μg/ml concentration. The cytotoxicity and proliferation activity was quantified using an MTS assay performed by the addition of 20 μl of MTS and phenazine methosulfate (PMS) solution to each well. After a three hour incubation, the OD at 492 nm was measured by an ELISA plate reader. The OD492 is proportional to the number of viable cells in the wells. The percent of cytotoxicity was calculated as follows: […]. The photographs were taken after 72 hours.

[1] = test system: chorioallantoic membrane (CAM); test: Chicken embryonic chorioallantoic membrane (CAM) angiogenesis assay; format: in vivo; details: 250 ng bacterially-produced TNF-gamma mixed with FGF-2 (100 ng) or VEGF (250 ng)
Protocol: The CAM assay was carried out essentially as described by Nguyen and colleagues (Microvasc. Res. 47:31-40 (1994)) and Iruela-Arispe and Dvorak (Thromb. Haemost. 78:672-677 (1997)). The method is based on the growth of new capillary vessels into a collagen gel pellet placed directly on the chorioallantoic membrane (CAM). Angiogenic factors such as […], FGF-2 (100 ng), VEGF (250 ng), or bFGF (10, 500, and 1000 ng) were embedded in collagen gel pellets and placed in contact with the CAM. Quantification of angiogenesis in the gels was carried out 24 hours after the placement of the gel pellets by using a Nikon fluorescence microscope. The images were transferred to a Power PC 100 AV, using a CCD Sony camera. Fluorescence intensity was evaluated with NH Image 1.61 software. Fluorescence intensity for the positive controls (which contained an angiogenic factor alone) was considered as the maximum angiogenic response, and set, arbitrarily, at 100. Due to the variability of the assay, inhibition greater than 20% was considered significant.
As an experimental determination of the effect of TNF-gamma on the FGF-2- or VEGF-induced angiogenesis, bacterially-produced TNF-gamma (250 ng) was mixed with either FGF-2 (100 ng) or VEGF (250 ng) and embedded in collagen gel pellets. The pellets were then placed in contact with the CAM as described above.

[2] = test system: bovine pulmonary artery endothelial cells (BPAEC); test: Endothelial cell apoptosis (morphology, Hoechst staining, DNA fragmentation); format: cell-based; details: BPAEC, 48 hours, Hoechst 33342
Protocol: [Bovine pulmonary artery endothelial cells were incubated with various concentrations of TNF-gamma for 48 hours. The apoptosis was assessed by nuclear staining with Hoechst 33342 fluorescence dye (10 mg/ml).] […] [U937 cells were transfected using lipofectamine (following manufacturer's instruction) with 0.2 mg of reporter plasmid (NF-kappaB-SEAP). The transfected U937 cells were collected and added to the 96-well plate ([…]/well) with various concentrated of TNF-gamma. After Incubation at 37° C. for 72 hr, the NF-kappaB activity was measured with luminometer at absorbance of 450 nm.]
Bovine pulmonary artery endothelia cells (BPAEC) were incubated with various concentrations of TNF-gamma for 48 hours. Apoptosis was assessed morphologically and by nuclear staining with Hoechst 33342 fluorescence dye (10 mg/ml) in triplicate. Live and apoptotic cells were scored in four random fields, about 1,000 cells were counted. The DNA fragmentation was analyzed as described previously.
BPAEC were obtained from the American Type Culture Collection (Rockville, Md., USA). The cells were grown in DMEM supplemented with 10% heat-inactivated FCS in a humidified environment of 5% CO2/[…] at 37° C. as previously described (Yue, T. L., et al., Mol. Pharmacol. 51:951-962 (1997)). Cells at a subconfluent density were used. Before experiments, the medium was changed to DMEM contained 2% FCS. BPAEC from passages 17-20 were used in all studies.
To quantify cells undergoing apoptosis, cell monolayers were fixed and stained with Hoechst […] (Molecular probe, Eugene, Oreg., USA) as described previously (Yue, T. L., et al., Mol. Pharmacol. 51:951-962 (1997)). The morphological features of apoptosis (cell shrinkage, chromatin condensation, blebbing, and fragmentation) were monitored by fluorescence microscopy. Transmission electron microscopy study was done as reported previously (Yue, T. L., et al., Mol. Pharmacol. 51:951-962 (1997)).
DNA ladder: Cells treated with vehicle or TNF-gamma-alpha were lysed in lysis buffer containing 100 mM NaCl, 10 mM Tris-HCl, pH 8.0, 2.5 mM EEDTA, 0.5% SDS, and 100 micrograms/ml […]. The lysates were incubated at 55° C. for 16 h. After incubation, the lysates were gently extracted three times with pheno/chloroform/isoamyl alcohol, precipitated in ethanol, treated with DNAse-free RNAse, re-extracted, and precipitated again as described previously. DNA electrophoresis was carried out in 1.8% agarose gels containing ethidium bromide, and DNA fragmentations were visualized under ultraviolet light.
In situ end-labeling (TUNEL): BPAEC were cultured in two-chamber slides (Nunc) and treated with TNF-gamma-alpha for 8 to 24 h. In situ detection of apoptotic cells was performed by using terminal deoxyribonucleotide transferase-mediated dUTP nick end labeling with an ApopTag in situ apoptosis detection kit (Oncor) following the manufacturer's recommendation.
The cells were plated in two-chamber slides. The cells were cotransfected with 0.5 μg/ml of Pegfp-c-1 (Clontech; Li, Y. and Horwitz, M. S. Biotechnology 23:1026-1028) as a fluorescent marker of transfected cells together with 1 μg/ml of either the empty cloning vector pcDNA1 (control) or the dominant-interfering c-Jun mutant pcDNA1-FlagΔ169 (Xia, Z., et al., Science 270:1326-1331 (1995)) using Calphos Maximizer Transfection Kit (Clontech) according to the manufacturer's recommendation. Following transfection, the cells were allowed to recover in complete medium for 24 h. The cells were treated with TNF-gamma-alpha and the number of apoptotic cells was assessed by nuclear staining after fixation as described in Methods.

TNF-gamma: new member of the tumor necrosis factor family; the term refers to TNF-gamma-alpha and/or TNF-gamma-beta
Adhesion (Raji): −−
Differentiation (Raji): −−
Proliferation (Raji): −
new capillary growth into collagen gels (FGF-2- or VEGF-induced angiogenesis) [1]: markedly inhibited new capillary growth into collagen gels
apoptosis [2]: induces apoptosis
